Experimental findings from patent US20240409585A1, “MACROCYCLIC IMMUNOMODULATORS” (priority 2021, published 2024) are described below.

Numbered stars: 1 amine (or outer) side, 2 acyl side, 3 side chain; on linkers, the order of the positions; unused ones are H or OH. Bridge positions count the residues as written; N and C are the ends. Square brackets hold non-standard residues; d marks the D form. Peptide text beside a SMILES is read from it. * marks the point of attachment. ξ: configuration not given here. Phe(4-COOH) = N[C@@H](Cc1ccc(C(=O)O)cc1)C(=O)O; X27 = O=C([C@H](Cc1ccc2ncccc2c1)N[*:1])[*:2]; dPhe(2,4-F2) = N[C@H](Cc1ccc(F)cc1F)C(=O)O; Bip = N[C@@H](Cc1ccc(-c2ccccc2)cc1)C(=O)O; Phe(3-CN) = N#Cc1cccc(C[C@H](N)C(=O)O)c1; Phe(3-OMe) = COc1cccc(C[C@H](N)C(=O)O)c1; dPhe(4-Cl) = N[C@H](Cc1ccc(Cl)cc1)C(=O)O; Phe(3-Me) = Cc1cccc(C[C@H](N)C(=O)O)c1; Val(3-OH) = CC(C)(O)[C@H](N)C(=O)O; 4Pal = N[C@@H](Cc1ccncc1)C(=O)O; 2Thi = N[C@@H](Cc1cccs1)C(=O)O; Cha = N[C@@H](CC1CCCCC1)C(=O)O; Cit = NC(=O)NCCC[C@H](N)C(=O)O; Ile(3ξ) = CCC(C)[C@H](N)C(=O)O; dPhg = N[C@@H](C(=O)O)c1ccccc1; Thr(3ξ) = CC(O)[C@H](N)C(=O)O; Carboxymethyl = O=C(O)C*; NMeA = CN[C@@H](C)C(=O)O; Dab = NCC[C@H](N)C(=O)O; Dap = NC[C@H](N)C(=O)O

The target of this test is T1, PE-labeled human PD-L1-Ig binding to Jurkat cell line over-expressing human PD-1 (Jurkat-PD-1) (Homo sapiens, UniProt Q15116).
T1 construct: expressed in transfected cells; host or cells: Jurkat
T1 sequence (Q15116 25-288): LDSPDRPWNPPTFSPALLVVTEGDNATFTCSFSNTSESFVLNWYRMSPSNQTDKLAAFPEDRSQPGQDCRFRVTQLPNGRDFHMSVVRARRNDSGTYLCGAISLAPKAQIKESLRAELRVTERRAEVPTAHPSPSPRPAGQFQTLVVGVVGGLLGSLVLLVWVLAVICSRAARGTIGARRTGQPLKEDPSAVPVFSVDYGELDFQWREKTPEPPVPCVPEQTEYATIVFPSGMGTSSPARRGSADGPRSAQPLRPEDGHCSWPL
Put plainly: Jurkat-PD-1 Cell Binding High-Content Screening Assay (CBA): Method 1. Particulars: Jurkat-hPD-1 cells, PE-labeled PD-L1-Ig 20 nM final; read-out: Jurkat HPDL1 PD1 IC50 (uM) (Method 1).

For orientation: IC50 means the midpoint of a concentration-inhibition curve.

For the compound `CC(C)C[C@@H]1NC(=O)[C@H](CCN)NC(=O)[C@@H](CC(C)C)NC(=O)[C@H](C)N(C)C(=O)[C@H](Cc2cnc[nH]2)NC(=O)[C@H](Cc2ccc(-c3ccccc3)cc2)NC(=O)[C@H](C(C)C)NC(=O)[C@H](Cc2c[nH]c3ccccc23)NC(=O)[C@H](CC(=O)O)NC(=O)[C@H](Cc2ccc(C(=O)O)cc2)NC(=O)[C@H](CN)NC(=O)CSC[C@@H](C(=O)N[C@@H](C)C(N)=O)NC(=O)[C@H]([C@@H](C)O)NC(=O)[C@H](C(C)C)NC1=O` [Compound 1439] ({CH2CO}-[Dap][Phe(4-COOH)]DWV[Bip]H[NMeA][dL][Dab]LVTCA-NH2; thioether N-14), the half-inhibitory concentration (IC50) was 0.06 µM. On to `Cc1cccc(C[C@@H]2NC(=O)[C@H](CC(=O)O)NC(=O)[C@H](Cc3ccc(OCC(=O)O)cc3)NC(=O)[C@H](CCN)NC(=O)CSC[C@@H](C(=O)N[C@@H](CCN)C(N)=O)NC(=O)[C@H](C(C)O)NC(=O)[C@H](C(C)C)NC(=O)[C@H](CC3CCCCC3)NC(=O)[C@H](CCN)NC(=O)[C@@H](CC(C)C)NC(=O)[C@H](C)N(C)C(=O)[C@H](Cc3ccc(OCC(=O)O)cc3)NC(=O)[C@H](Cc3ccc(-c4ccccc4)cc3)NC(=O)[C@H](Cc3ccc(OCC(=O)O)cc3)NC2=O)c1` (stereo partly drawn) [Compound 2154] ({CH2CO}-[Dab]Y(Carboxymethyl)D[Phe(3-Me)]Y(Carboxymethyl)[Bip]Y(Carboxymethyl)[NMeA][dL][Dab][Cha]V[Thr(3ξ)]C[Dab]-NH2; thioether N-14), for which the half-inhibitory concentration (IC50) worked out at 0.01 µM. Next, `CC(C)C[C@@H]1NC(=O)[C@H](CCN)NC(=O)[C@@H](CC(C)C)NC(=O)[C@H](C)N(C)C(=O)[C@H](Cc2ccc(O)cc2)NC(=O)[C@H](Cc2ccc(-c3ccccc3)cc2)NC(=O)[C@H](C(C)C)NC(=O)[C@H](Cc2c[nH]c3ccccc23)NC(=O)[C@H](CC(=O)O)NC(=O)[C@H](Cc2ccc(O)cc2)NC(=O)[C@H](CC(N)=O)NC(=O)CSC[C@@H](C(=O)N[C@@H](C)C(N)=O)NC(=O)[C@H]([C@@H](C)O)NC(=O)[C@H](C(C)C)NC1=O` [Compound 1303] ({CH2CO}-NYDWV[Bip]Y[NMeA][dL][Dab]LVTCA-NH2; thioether N-14): 0.07 µM; `CC(C)C[C@@H]1NC(=O)[C@H](CCCNC(=N)N)NC(=O)[C@@H](Cc2ccc(F)cc2F)NC(=O)[C@H](C)N(C)C(=O)[C@H](CCCNC(=N)N)NC(=O)[C@H](Cc2ccc(-c3ccccc3)cc2)NC(=O)[C@H](C(C)C)NC(=O)[C@H](Cc2c[nH]c3ccccc23)NC(=O)[C@H](CC(=O)O)NC(=O)[C@H](Cc2ccc(O)cc2)NC(=O)[C@H](Cc2ccccc2)NC(=O)CSC[C@@H](C(=O)N[C@@H](C)C(N)=O)NC(=O)[C@H]([C@@H](C)O)NC(=O)[C@H](C(C)C)NC1=O` [Compound 1073] ({CH2CO}-FYDWV[Bip]R[NMeA][dPhe(2,4-F2)]RLVTCA-NH2; thioether N-14): 0.13 µM; `CC(C)C[C@@H]1NC(=O)[C@H](CCCNC(=N)N)NC(=O)[C@@H](Cc2ccc(Cl)cc2)NC(=O)[C@H](C)N(C)C(=O)[C@H](CCCNC(=N)N)NC(=O)[C@H](Cc2ccc(-c3ccccc3)cc2)NC(=O)[C@H](C(C)C)NC(=O)[C@H](Cc2c[nH]c3ccccc23)NC(=O)[C@H](CC(=O)O)NC(=O)[C@H](Cc2ccc(O)cc2)NC(=O)[C@H](Cc2ccccc2)NC(=O)CSC[C@@H](C(=O)N[C@@H](C)C(N)=O)NC(=O)[C@H]([C@@H](C)O)NC(=O)[C@H](C(C)C)NC1=O` [Compound 1070] ({CH2CO}-FYDWV[Bip]R[NMeA][dPhe(4-Cl)]RLVTCA-NH2; thioether N-14): 0.63 µM. As to `CC(C)C[C@@H]1NC(=O)[C@H](CCCNC(=N)N)NC(=O)[C@@H](c2ccccc2)NC(=O)[C@H](C)N(C)C(=O)[C@H](CCCNC(=N)N)NC(=O)[C@H](Cc2ccc(-c3ccccc3)cc2)NC(=O)[C@H](C(C)C)NC(=O)[C@H](Cc2c[nH]c3ccccc23)NC(=O)[C@H](CC(=O)O)NC(=O)[C@H](Cc2ccc(O)cc2)NC(=O)[C@H](Cc2ccccc2)NC(=O)CSC[C@@H](C(=O)N[C@@H](C)C(N)=O)NC(=O)[C@H]([C@@H](C)O)NC(=O)[C@H](C(C)C)NC1=O` [Compound 1059] ({CH2CO}-FYDWV[Bip]R[NMeA][dPhg]RLVTCA-NH2; thioether N-14), the IC50 came out at 0.21 µM. Regarding `CC(C)C[C@@H]1NC(=O)[C@H](CCN)NC(=O)[C@@H](CC(C)C)NC(=O)[C@H](C)N(C)C(=O)[C@H](CCCNC(N)=O)NC(=O)[C@H](Cc2ccc(-c3ccccc3)cc2)NC(=O)[C@H](C(C)C)NC(=O)[C@H](Cc2c[nH]c3ccccc23)NC(=O)[C@H](CC(=O)O)NC(=O)[C@H](Cc2ccc(O)cc2)NC(=O)[C@H](CC(N)=O)NC(=O)CSC[C@@H](C(=O)N[C@@H](C)C(N)=O)NC(=O)[C@H](CO)NC(=O)[C@H](C(C)C)NC1=O` [Compound 1237] ({CH2CO}-NYDWV[Bip][Cit][NMeA][dL][Dab]LVSCA-NH2; thioether N-14), the IC50 worked out at 0.03 µM.

Regarding `CC(=O)NCC[C@H](NC(=O)[C@@H]1CSCC(=O)N[C@@H](Cc2cccs2)C(=O)N[C@@H](Cc2ccc(OCC(=O)O)cc2)C(=O)N[C@@H](CC(=O)O)C(=O)N[C@@H](Cc2cccc(C)c2)C(=O)N[C@@H](Cc2ccc(C(=O)O)cc2)C(=O)N[C@@H](Cc2ccc(-c3ccccc3)cc2)C(=O)N[C@@H](Cc2ccc(OCC(=O)O)cc2)C(=O)N(C)[C@@H](C)C(=O)N[C@H](CC(C)C)C(=O)N[C@@H](CCN)C(=O)N[C@@H](CC2CCCCC2)C(=O)N[C@@H](C(C)(C)O)C(=O)N[C@@H](Cc2cnc[nH]2)C(=O)N1)C(N)=O` [Compound 2163] ({CH2CO}-[2Thi]Y(Carboxymethyl)D[Phe(3-Me)][Phe(4-COOH)][Bip]Y(Carboxymethyl)[NMeA][dL][Dab][Cha][Val(3-OH)]HC[Dab](Ac)-NH2; thioether N-14), the 50% inhibitory concentration (IC50) stood at 0.01 µM.

As to `CC(C)C[C@@H]1NC(=O)[C@H](Cc2c[nH]c3ccccc23)NC(=O)[C@H](CC(=O)O)NC(=O)[C@H](Cc2ccc(OCC(=O)O)cc2)NC(=O)[C@H](Cc2ccccc2)NC(=O)CSC[C@@H](C(=O)NCC(N)=O)NC(=O)[C@H](CO)NC(=O)[C@H](C(C)C)NC(=O)[C@H](CC(C)C)NC(=O)[C@H](CC(N)=O)NC(=O)[C@@H](CC(C)C)NC(=O)[C@H](C)N(C)C(=O)[C@H](C(C)C)NC(=O)[C@H](Cc2ccc(-c3ccccc3)cc2)NC1=O` [Compound 1526] ({CH2CO}-FY(Carboxymethyl)DWL[Bip]V[NMeA][dL]NLVSCG-NH2; thioether N-14), the IC50 was found to be 0.01 µM. Regarding `CC(C)C[C@@H]1NC(=O)[C@H](CCN)NC(=O)[C@@H](CC(C)C)NC(=O)[C@H](C)N(C)C(=O)[C@H](CCCNC(N)=O)NC(=O)[C@H](Cc2ccc(-c3ccccc3)cc2)NC(=O)[C@H](C(C)C)NC(=O)[C@H](Cc2c[nH]c3ccccc23)NC(=O)[C@H](CC(=O)O)NC(=O)[C@H](Cc2ccc(O)cc2)NC(=O)[C@H](Cc2ccc3ncccc3c2)NC(=O)CSC[C@@H](C(=O)N[C@@H](C)C(N)=O)NC(=O)[C@H](C(C)O)NC(=O)[C@H](C(C)C)NC1=O` (stereo partly drawn) [Compound 2036] ({CH2CO}-[X27]YDWV[Bip][Cit][NMeA][dL][Dab]LV[Thr(3ξ)]CA-NH2; thioether N-14), the half-inhibitory concentration (IC50) turned out to be 0.04 µM. As for `CCC(C)[C@@H]1NC(=O)[C@H](Cc2ccc(-c3ccccc3)cc2)NC(=O)[C@H](C(C)C)NC(=O)[C@H](Cc2cccc(C)c2)NC(=O)[C@H](CC(=O)O)NC(=O)[C@H](Cc2ccc(OCC(=O)O)cc2)NC(=O)[C@H](C(C)O)NC(=O)CSC[C@@H](C(=O)N[C@@H](CO)C(=O)O)NC(=O)[C@H](C(C)O)NC(=O)[C@H](C(C)C)NC(=O)[C@H](CC2CCCCC2)NC(=O)[C@H](CCN)NC(=O)[C@@H](CC(C)C)NC(=O)[C@H](C)N(C)C1=O` (stereo partly drawn) [Compound 2232] ({CH2CO}-[Thr(3ξ)]Y(Carboxymethyl)D[Phe(3-Me)]V[Bip][Ile(3ξ)][NMeA][dL][Dab][Cha]V[Thr(3ξ)]CS-OH; thioether N-14), the half-inhibitory concentration (IC50) was found to be 0.01 µM. Turning to `CC(C)C[C@@H]1NC(=O)[C@H](CCCNC(=N)N)NC(=O)[C@@H](CC(C)C)NC(=O)[C@H](C)N(C)C(=O)[C@H](CCCNC(N)=O)NC(=O)[C@H](Cc2ccc(-c3ccccc3)cc2)NC(=O)[C@H](C(C)C)NC(=O)[C@H](Cc2c[nH]c3ccccc23)NC(=O)[C@H](CC(=O)O)NC(=O)[C@H](Cc2ccc(O)cc2)NC(=O)[C@H](CC(N)=O)NC(=O)CSC[C@@H](C(=O)N[C@@H](C)C(N)=O)NC(=O)[C@H]([C@@H](C)O)NC(=O)[C@H](C(C)C)NC1=O` [Compound 1166] ({CH2CO}-NYDWV[Bip][Cit][NMeA][dL]RLVTCA-NH2; thioether N-14), the half-inhibitory concentration (IC50) amounted to 0.06 µM. With `COc1cccc(C[C@@H]2NC(=O)[C@H](CC(=O)O)NC(=O)[C@H](Cc3cccc(C#N)c3)NC(=O)[C@H](Cc3ccncc3)NC(=O)CSC[C@@H](C(=O)N[C@@H](C)C(N)=O)NC(=O)[C@@H](CO)NC(=O)[C@H](C(C)C)NC(=O)[C@H](CC(C)C)NC(=O)[C@H](CC(N)=O)NC(=O)[C@@H](C)NC(=O)[C@H](C)N(C)C(=O)[C@H](C(C)C)NC(=O)[C@H](Cc3ccc(-c4ccccc4)cc3)NC(=O)[C@@H](CC(C)C)NC2=O)c1` [Compound 1462] ({CH2CO}-[4Pal][Phe(3-CN)]D[Phe(3-OMe)][dL][Bip]V[NMeA][dA]NLV[dS]CA-NH2; thioether N-14), the IC50 was found to be 0.01 µM.

For `CC(C)C[C@@H]1NC(=O)[C@H](CCCNC(=N)N)NC(=O)[C@@H](Cc2ccccc2)NC(=O)[C@H](C)N(C)C(=O)[C@H](CCCNC(=N)N)NC(=O)[C@H](Cc2ccc(-c3ccccc3)cc2)NC(=O)[C@H](C(C)C)NC(=O)[C@H](Cc2c[nH]c3ccccc23)NC(=O)[C@H](CC(=O)O)NC(=O)[C@H](Cc2ccc(O)cc2)NC(=O)[C@H](CC(N)=O)NC(=O)CSC[C@@H](C(=O)NCC(N)=O)NC(=O)[C@H](CO)NC(=O)[C@H](C(C)C)NC1=O` [Compound 1032] ({CH2CO}-NYDWV[Bip]R[NMeA][dF]RLVSCG-NH2; thioether N-14), the IC50 worked out at 0.51 µM.
